The test relates to guinea pigs. The experiment in a line: Hypoglycemia (blood glucose) in guinea pigs after subcutaneous injection of the insulin preparation. It is filed as in vivo, guinea pig. Here is the method: 25 ml of a medium containing 1.6% (w/v) of glycerol. 0.33% (w/v) of m-cresol, 1/75M of sodium phosphate, pH value 7.3, were prepared. The solution was sterilized by filtration. 1.5 mg of human insulin-B21-methyl ester, prepared as described in Example 1, were suspended in 1.0 ml of medium.
4.5 mg of human insulin-A17-methyl ester were dissolved in 2.7 ml of 0.015M phosphoric acid. 21 mg of sodium chloride and 4.1 μlitres of an aqueous solution of 152 mM zinc chloride were added. The solution was sterilized by filtration. The pH value of the solution was adjusted to 8.0 under aseptic conditions with a sterile aqueous solution of sodium hydroxide. The pH value of the solution was then readjusted to 7.3 with sterile hydrochloric acid, and rhombohedral crystals with a mean size of 10 um were formed with gentle stirring at 21° C. The volume was adjusted to 3 ml with sterile water.
Moreover, a sterile solution of 3 ml of 13.5 mM phosphoric acid in admixture with 21 mg of sodium chloride and 9 μlitres of m-cresol was prepared, and the pH value was adjusted to 7.3 with a sterile aqueous solution of sodium hydroxide. The two solutions were combined.
15 mg of human insulin-A4-gln, obtained as described in Example 5, was dissolved in 10 ml of a solution containing 13.5 mM phosphoric acid, 0.3% m-cresol and 1.6% glycerol. The solution was sterilized by filtration, and the pH value was adjusted to 9,0 with a sterile aqueous solution of sodium hydroxide. The pH value was readjusted to 8.2 with a sterile solution of hydrochloric acid, and human insulin-A4-gln crystallized as rhombohedral crystals with gentle stirring.

Setting [1] is: dosage 18 μg/kg, crystalline zinc preparation pH 7.3.

On to Human insulin-A4-gln, for which the “protracted hypoglycemic effect compared with "Insulatard" at 0.5 IU/kg” value (subcutaneous injection of crystalline suspension at 0.5 IU/kg) was “nearly identical both in timing and amplitude”.
Take Human insulin-A17-methyl ester: under setting [1], the “biological activity indicated by area below the blood glucose curve, relative to human insulin” value is “nearly the same biological activity as human insulin”; the hypoglycemia result was “strongly protracted hypoglycemia”; the “protracted insulin action compared with "Insulatard"” value is listed as “longer than the protracted action of the known injection preparation”.
Take Human insulin-B21-methyl ester: under “subcutaneous, zinc-free suspension 1.5 mg in 1.0 ml medium, pH 7.3”, the “protracted insulin action compared with "Insulatard"” value is given as “comparable to the hypoglycemia observed after injection of a standard protamin insulin preparation”.

The values are drawn from patent publication US5157021A, “Insulin derivatives and pharmaceutical preparations containing these derivatives” (Novo Nordisk A/S, priority 1985, dated 1992).
